Read-outs that look alike come from different tables or passages of the source.
What was measured:
[1] = biological target: T1, α1b-AR (Homo sapiens, UniProt P35368); test: α1-Adrenergic receptor radio-ligand (125I-HEAT) binding assay, α1b subtype; settings: COS-7 cell membranes transfected with α1b-AR, 125I-HEAT 50 pM
T1 construct: expressed in transfected cells; host or cells: COS-7
T1 sequence (P35368 1-520): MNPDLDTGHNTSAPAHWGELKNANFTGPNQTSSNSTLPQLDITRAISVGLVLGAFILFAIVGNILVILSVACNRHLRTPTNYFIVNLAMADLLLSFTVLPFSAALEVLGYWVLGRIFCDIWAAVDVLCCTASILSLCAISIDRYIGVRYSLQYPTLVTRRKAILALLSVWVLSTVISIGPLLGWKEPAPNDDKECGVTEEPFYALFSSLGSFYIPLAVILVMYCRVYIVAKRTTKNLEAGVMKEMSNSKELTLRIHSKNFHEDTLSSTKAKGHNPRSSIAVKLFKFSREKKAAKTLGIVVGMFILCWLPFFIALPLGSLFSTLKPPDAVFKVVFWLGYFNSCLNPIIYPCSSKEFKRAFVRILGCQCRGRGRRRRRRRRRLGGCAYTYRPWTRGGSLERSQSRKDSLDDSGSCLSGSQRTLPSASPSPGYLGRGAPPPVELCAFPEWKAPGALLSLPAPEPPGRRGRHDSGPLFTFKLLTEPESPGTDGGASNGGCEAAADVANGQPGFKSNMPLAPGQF
Outline: (§1)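 Membranes from COS-7 cells transfected with a single α1-AR subtype, incubated 1 h at rt with 50 pM 125I-HEAT and compound (1 pM–10 µM, half-log steps, final) in Tris/EDTA/NaCl pH 7.4. Bound radioactivity collected by GF/C filtration and scintillation counting, triplicates; Ki derived.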

[2] = biological target: T2, α1d-AR (Homo sapiens, UniProt P25100); test: α1-Adrenergic receptor radio-ligand (125I-HEAT) binding assay, α1d subtype; settings: COS-7 cell membranes transfected with α1d-AR, 125I-HEAT 50 pM
T2 construct: expressed in transfected cells; host or cells: COS-7
T2 sequence (P25100 1-572): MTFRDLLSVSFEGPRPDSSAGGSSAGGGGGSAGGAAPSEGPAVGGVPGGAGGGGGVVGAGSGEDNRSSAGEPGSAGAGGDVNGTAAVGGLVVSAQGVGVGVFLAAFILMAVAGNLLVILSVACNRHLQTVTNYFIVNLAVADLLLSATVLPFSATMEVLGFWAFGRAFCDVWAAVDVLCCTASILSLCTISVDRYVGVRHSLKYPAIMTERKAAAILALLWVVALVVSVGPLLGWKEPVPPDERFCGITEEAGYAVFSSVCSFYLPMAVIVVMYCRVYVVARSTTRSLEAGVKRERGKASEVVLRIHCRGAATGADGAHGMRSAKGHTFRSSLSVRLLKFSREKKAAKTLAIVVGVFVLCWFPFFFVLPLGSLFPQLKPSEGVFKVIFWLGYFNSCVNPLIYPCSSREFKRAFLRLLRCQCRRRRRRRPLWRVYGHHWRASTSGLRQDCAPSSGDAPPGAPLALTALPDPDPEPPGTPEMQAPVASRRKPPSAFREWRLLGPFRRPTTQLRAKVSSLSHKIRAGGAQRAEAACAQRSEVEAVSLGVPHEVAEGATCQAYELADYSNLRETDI
Outline: as §1

[3] = biological target: T3, α1a-AR (Homo sapiens, UniProt P35348); test: α1-Adrenergic receptor radio-ligand (125I-HEAT) binding assay, α1a subtype; settings: COS-7 cell membranes transfected with α1a-AR, 125I-HEAT 50 pM
T3 construct: expressed in transfected cells; host or cells: COS-7
T3 sequence (P35348 1-466): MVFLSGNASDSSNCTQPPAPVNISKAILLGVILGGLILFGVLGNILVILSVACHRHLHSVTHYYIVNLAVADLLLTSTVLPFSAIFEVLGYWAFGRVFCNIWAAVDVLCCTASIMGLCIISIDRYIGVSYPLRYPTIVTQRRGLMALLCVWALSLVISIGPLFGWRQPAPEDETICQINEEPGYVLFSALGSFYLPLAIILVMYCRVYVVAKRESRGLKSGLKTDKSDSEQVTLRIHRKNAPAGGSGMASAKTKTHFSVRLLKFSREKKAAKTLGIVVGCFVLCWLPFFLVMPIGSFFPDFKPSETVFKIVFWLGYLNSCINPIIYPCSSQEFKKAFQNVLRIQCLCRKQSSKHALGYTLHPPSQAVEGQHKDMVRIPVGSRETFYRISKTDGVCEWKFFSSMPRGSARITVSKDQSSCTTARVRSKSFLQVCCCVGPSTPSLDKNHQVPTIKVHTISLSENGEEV
Outline: as §1

[4] = test system: BPH patients; settings: clinical studies; cited from earlier work
[5] = test system: α1a and α1d subtypes over the α1b subtype; settings: cited from earlier work
[6] = test system: normal rats and rats with bladder hypertrophy secondary to outlet obstruction; settings: intrathecally administered; cited from earlier work
[7] = read-out: Receptor Binding, Ki α1b-AR
[8] = read-out: Receptor Binding, Ki α1d-AR
[9] = read-out: Receptor Binding, Ki α1a-AR

| SMILES | Ki [1, 7] [nM] | Ki [2, 8] [nM] | Ki [3, 9] [nM] | melting point [°C] | Ki ([1]; Receptor Binding, Ki α1b-AR) [nM] | Ki ([2]; Receptor Binding, Ki α1d-AR) [nM] | Ki ([3]; Receptor Binding, Ki α1a-AR) [nM] | effect on obstructive and irritative symptoms of BPH [4] | selective for the α1a and α1d subtypes over the α1b subtype [5] | micturition pressure [6] |
| --- | --- | --- | --- | --- | --- | --- | --- | --- | --- | --- |
| CC(C)Oc1ccccc1N1CCN(Cc2cccc(C(=O)N3CCc4cc(N)ccc43)c2)CC1 [Cpd 1, (5-amino-2,3-dihydro-indol-1-yl)-{3-[4-(2-isopropoxy-phenyl)-piperazin-1-ylmethyl]-phenyl}-methanone] | 301 | 8.6 | 1.5 | 137 to 139 |  |  |  |  |  |  |
| CC(C)Oc1ccccc1N1CCN(Cc2cccc(C(=O)N3CCc4cc(NS(=O)(=O)c5ccc6ccccc6c5)ccc43)c2)CC1 [Cpd 2, naphthalene-2-sulfonic acid (1-{3-[4-(2-isopropoxy-phenyl)-piperazin-1-ylmethyl]-benzoyl}-2,3-dihydro-1H-indol-5-yl)-amide] | 321 | 9.7 | 1.1 | 73 to 76 |  |  |  |  |  |  |
| CC(C)Oc1ccccc1N1CCN(Cc2cccc(C(=O)N3CCc4cc(NS(=O)(=O)c5cccc6c(N(C)C)cccc56)ccc43)c2)CC1 [Cpd 3, 5-dimethylamino-naphthalene-1-sulfonic acid (1-{3-[4-(2-isopropoxy-phenyl)-piperazin-1-ylmethyl]-benzoyl}-2,3-dihydro-1H-indol-5-yl)-amide] | 3450 | 98 | 65 | 80 to 83 |  |  |  |  |  |  |
| Cc1ccc(OC(=O)Nc2ccc3c(c2)CCN3C(=O)c2cccc(CN3CCN(c4ccccc4OC(C)C)CC3)c2)cc1 [Cpd 4, (1-{3-[4-(2-isopropoxy-phenyl)-piperazin-1-ylmethyl]-benzoyl}2,3-dihydro-1H-indol-5-yl)-carbamic acid p-tolyl ester] |  |  |  | 166 to 168 | 96 | 20 | 2.4 |  |  |  |
| CC(C)Oc1ccccc1N1CCN(Cc2cccc(C(=O)N3CCc4ccc(NCc5c(F)cccc5F)cc43)c2)CC1 [Cpd 6, [6-(2,6-difluoro-benzylamino)-2,3-dihydro-indol-1-yl]-{3-[4-(2-isopropoxy-phenyl)-piperazin-1-ylmethyl]-phenyl}-methanone] | 856 | 2.4 | 2 | 137 to 139 |  |  |  |  |  |  |
| CC(C)Oc1ccccc1N1CCN(Cc2cccc(C(=O)N3CCc4cc(NCc5ccc(C(F)(F)F)cc5)ccc43)c2)CC1 [Cpd 8, {3-[4-(2-isopropoxy-phenyl)-piperazin-1-ylmethyl]-phenyl}-[5-(4-trifluoromethyl-benzylamino)-2,3-dihydro-indol-1-yl]-methanone] | 389 | 15 | 14 | 74 to 76 |  |  |  |  |  |  |
| CC(C)Oc1ccccc1N1CCN(Cc2cccc(C(=O)N3CCc4cc(NCc5c(F)cccc5F)ccc43)c2)CC1 [Cpd 9, [5-(2,6-difluoro-benzylamino)-2,3-dihydro-indol-1-yl]-{3-[4-(2-isopropoxy-phenyl)-piperazin-1-ylmethyl]-phenyl}-methanone] | 2050 | 17 | 26 | 127 to 130 |  |  |  |  |  |  |
| CCOC(OCC)c1ccc(CNc2ccc3c(c2)N(C(=O)c2cccc(CN4CCN(c5ccccc5OC(C)C)CC4)c2)CC3)cc1 [Cpd 11] | 6260 | 7 | 5 | 156 to 160 |  |  |  |  |  |  |
| Cc1c(S(=O)(=O)Nc2ccc3c(c2)N(C(=O)c2cccc(CN4CCN(c5ccccc5OC(C)C)CC4)c2)CC3)sc2ccc(Cl)cc12 [Cpd 18, 5-chloro-3-methyl-benzo[b]thiophene-2-sulfonic acid (1-{3-[4-(2-isopropoxy-phenyl)-piperazin-1-ylmethyl]-benzoyl}-2,3-dihydro-1H-indol-6-yl)-amide] | 43 | 4 | 0.04 | 192 to 195 |  |  |  |  |  |  |
| CC(=O)Nc1ccc(S(=O)(=O)Nc2ccc3c(c2)CCN3C(=O)c2cccc(CN3CCN(c4ccccc4OC(C)C)CC3)c2)cc1 [Cpd 19, N-[4-(1-{3-[4-(2-isopropoxy-phenyl)-piperazin-1-ylmethyl]-benzoyl}-2,3-dihydro-1H-indol-5-ylsulfamoyl)-phenyl]-acetamide] | 383 | 2.3 | 26 | 132 to 134 |  |  |  |  |  |  |
| CCCCCCCCc1ccc(CNc2ccc3c(c2)CCN3C(=O)c2cccc(CN3CCN(c4ccccc4OC(C)C)CC3)c2)cc1 [Cpd 23, {3-[4-(2-isopropoxy-phenyl)-piperazin-1-ylmethyl]-phenyl}-[5-(4-octyl-benzylamino)-2,3-dihydro-indol-1-yl]-methanone] |  | 317 | 195 | 116 to 118 |  |  |  |  |  |  |
| COc1cccc(OC)c1CNc1ccc2c(c1)CCN2C(=O)c1cccc(CN2CCN(c3ccccc3OC(C)C)CC2)c1 [Cpd 25, [5-(2,6-dimethoxy-benzylamino)-2,3-dihydro-indol-1-yl]-{3-[4-(2-isopropoxy-phenyl)-piperazin-1-ylmethyl]-phenyl}-methanone] | 1300 | 18 | 67 | 79 to 81 |  |  |  |  |  |  |
| COc1cccc(OC)c1C(=O)Nc1ccc2c(c1)CCN2C(=O)c1cccc(CN2CCN(c3ccccc3OC(C)C)CC2)c1 [Cpd 26, N-(1-{3-[4-(2-isopropoxy-phenyl)-piperazin-1-ylmethyl]-benzoyl}-2,3-dihydro-1H-indol-5-yl)-2,6-dimethoxy-benzamide] | 200 | 2 | 34 | 229 to 232 |  |  |  |  |  |  |
| CC(C)Oc1ccccc1N1CCN(Cc2cccc(C(=O)N3CCc4ccc(NS(=O)(=O)c5cccc6c(N(C)C)cccc56)cc43)c2)CC1 [Cpd 32, 5-dimethylamino-naphthalene-1-sulfonic acid (1-{3-[4-(2-isopropoxy-phenyl)-piperazin-1-ylmethyl]-benzoyl}-2,3-dihydro-1H-indol-6-yl)-amide] | 610 | 9.4 | 2.7 | 137 to 139 |  |  |  |  |  |  |
| CCOc1ccccc1OCCN[C@H](C)Cc1ccc(OC)c(S(N)(=O)=O)c1 [Tamsulosin] |  |  |  |  |  |  |  | improvement in both obstructive and irritative symptoms | about 15 fold |  |
| COc1cc2nc(N3CCN(C(=O)C4COc5ccccc5O4)CC3)nc(N)c2cc1OC (stereo not shown) [doxazosin] |  |  |  |  |  |  |  |  |  | decrease in micturition pressure |

From patent US20060183902A1, “Dihydroindolyl methanones as alpha 1a/1d adrenoreceptor modulators for the treatment of benign prostatic hypertrophy and lower urinary tract symptoms” (priority 2005, published 2006)
